Publication PMC6010123, “Synthesis of chiral pyrazolo[4,3-e][1,2,4]triazine sulfonamides with tyrosinase and urease inhibitory activity” (Journal of Enzyme Inhibition and Medicinal Chemistry, 2016)
Read-outs that look alike come from different tables or passages of the source.

Experiments:
[1] = biological target: T1, Jack bean urease (EC 3.5.1.5) (Canavalia ensiformis, UniProt P07374); assay: biochemical
T1 construct: purchased Sigma (St. Louis, MO, USA)

Jack bean urease = biological target: T2, Jack bean urease (Canavalia ensiformis, UniProt P07374); assay: Kinetic study of urease inhibition (Lineweaver-Burk, secondary replot, Dixon plot); format: biochemical
T2 construct: purchased Sigma (St. Louis, MO, USA)
T2 sequence (P07374 whole entry, looked up): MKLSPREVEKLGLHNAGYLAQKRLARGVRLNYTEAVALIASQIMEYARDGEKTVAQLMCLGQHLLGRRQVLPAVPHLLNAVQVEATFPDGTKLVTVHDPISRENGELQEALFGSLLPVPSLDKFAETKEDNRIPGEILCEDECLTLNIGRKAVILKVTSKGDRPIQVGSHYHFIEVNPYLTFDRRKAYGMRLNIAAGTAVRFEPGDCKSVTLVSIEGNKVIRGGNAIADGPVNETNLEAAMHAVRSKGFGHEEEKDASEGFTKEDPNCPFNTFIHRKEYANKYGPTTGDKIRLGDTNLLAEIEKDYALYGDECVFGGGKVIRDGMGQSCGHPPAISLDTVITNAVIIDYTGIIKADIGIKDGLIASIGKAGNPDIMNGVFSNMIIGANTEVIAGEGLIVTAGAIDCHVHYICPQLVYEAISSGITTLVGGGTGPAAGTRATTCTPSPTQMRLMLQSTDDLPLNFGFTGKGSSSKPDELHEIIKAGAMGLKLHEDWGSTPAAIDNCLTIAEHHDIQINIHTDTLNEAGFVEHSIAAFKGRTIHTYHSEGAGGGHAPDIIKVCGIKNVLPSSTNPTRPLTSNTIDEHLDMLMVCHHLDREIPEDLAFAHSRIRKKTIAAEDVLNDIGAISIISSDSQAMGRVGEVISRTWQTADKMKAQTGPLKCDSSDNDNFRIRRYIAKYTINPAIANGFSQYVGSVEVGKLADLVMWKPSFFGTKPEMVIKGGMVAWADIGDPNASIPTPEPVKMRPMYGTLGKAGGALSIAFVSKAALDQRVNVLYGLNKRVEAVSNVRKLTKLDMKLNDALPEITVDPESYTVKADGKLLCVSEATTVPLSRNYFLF
Protocol: Urease inhibition was measured by varying the concentration of urea in the presence of different concentrations (0, 0.125, 0.25 and 0.5 μM) of compound 8a. Inhibitory constant (Ki) was determined as the intersection on the X-axis of the secondary replot of 1/V (y-intercept of Lineweaver–Burk plot) versus inhibitor concentrations and by Dixon plot of inverse of velocities (1/V) versus inhibitor concentrations. Briefly the urea concentration was changed from 3.12 to 100 mM for urease kinetics studies and remaining procedure was same as describes in urease inhibition assay protocol. Urease activity was determined by measuring ammonia production using the indophenol method as reported previously. The results (change in absorbance per min) were processed by using SoftMaxPro software(Molecular Devices Corporation Sunnyvale, CA) and a Dixon plot was constructed by plotting (1/V) versus inhibitor concentration [I].

mushroom tyrosinase = mushroom tyrosinase (Agaricus bisporus, UniProt C7FF04); assay: Kinetic study of mushroom tyrosinase inhibition (Lineweaver-Burk, secondary replot, Dixon plot); format: biochemical; conditions: substrate L-DOPA
Chain of mushroom tyrosinase (C7FF04 2-392): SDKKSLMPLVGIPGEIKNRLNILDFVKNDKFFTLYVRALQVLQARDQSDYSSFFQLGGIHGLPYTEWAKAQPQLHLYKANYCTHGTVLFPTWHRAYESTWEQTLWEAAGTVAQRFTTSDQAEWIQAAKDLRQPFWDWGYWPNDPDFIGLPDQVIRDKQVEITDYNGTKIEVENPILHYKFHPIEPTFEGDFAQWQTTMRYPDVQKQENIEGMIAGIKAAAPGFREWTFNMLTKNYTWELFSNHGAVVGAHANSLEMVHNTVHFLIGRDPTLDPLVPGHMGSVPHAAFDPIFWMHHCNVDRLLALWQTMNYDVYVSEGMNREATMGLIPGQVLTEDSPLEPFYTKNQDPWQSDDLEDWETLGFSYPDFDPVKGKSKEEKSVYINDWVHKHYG
Protocol: Lineweaver–Burk plots of 1/absorbance versus 1/L-DOPA and 1/absorbance versus 1/Urea were used to determine the type of enzyme inhibition. A series of experiments were performed to determine the inhibition kinetics by following method[18] ^, [28] ^, [29]. Different inhibitor concentrations of compound 8b with 0, 15, 30, 61, 123 and 247 μM, 8j with 0, 14, 28 and 55.8 μM, respectively were used in case of mushroom tyrosinase inhibition. Substrate L-DOPA concentration was between 0.062 and 2 mM in all tyrosinase kinetic study. Pre-incubation and measurement time was the same as discussed in mushroom tyrosinase inhibition assay protocol. Maximal initial velocity was determined from initial linear portion of absorbance up to five minutes after addition of enzyme at a 30 s interval. The inhibition type on the enzyme was assayed by Lineweaver–Burk plots of inverse of velocities (1/V) versus inverse of substrate concentration 1/[S] mM ^− ^1, and the inhibition constant Ki was determined by two methods, by secondary replot of 1/V (y-intercept of Lineweaver–Burk plot) versus inhibitor concentrations and by Dixon plot of inverse of velocities (1/V) versus inhibitor concentrations.

T1 sequence (P07374 whole entry, looked up): as the sequence (P07374 whole entry, looked up) above

Row | Compound | IC50 [1] [nM] | further results
1 | CCOc1ccc(S(=O)(=O)N[C@@H](C)CO)cc1-c1nnc2c(n1)c(C)nn2C [8a, (S)-3-(1,3-dimethyl-1H-pyrazolo[4,3-e][1,2,4]triazin-5-yl)-4-ethoxy-N-(1-hydroxy-propan-2-yl)benzenesulfonamide] | 37 ± 3 | Ki (Jack bean urease): 10 nM; Urease type of inhibition (Jack bean urease; Lineweaver-Burk plot, substrate urea): Mixed type
2 | CCOc1ccc(S(=O)(=O)N[C@H](CO)CC(C)C)cc1-c1nnc2c(n1)c(C)nn2C [8i, (S)-3-(1,3-dimethyl-1H-pyrazolo[4,3-e][1,2,4]triazin-5-yl)-4-ethoxy-N-(1-hydroxy-4-methylpentan-2-yl)benzenesulfonamide] | 42 ± 12 | –
3 | NC(N)=S [Thio-Urea, thiourea, reference compound] | – | IC50 ([1]; Jack bean urease, 100 mM urea, pH 8.2, 37 °C, read-out: Urease IC50): 20700 ± 450 nM
4 | CCOc1ccc(S(=O)(=O)N[C@H](C)CO)cc1-c1nnc2c(n1)c(C)nn2C [8b, (R)-3-(1,3-dimethyl-1H-pyrazolo[4,3-e][1,2,4]triazin-5-yl)-4-ethoxy-N-(1-hydroxy-propan-2-yl)benzenesulfonamide] | 84 ± 20 | Mushroom tyrosinase type of inhibition (mushroom tyrosinase): Noncompetitive
5 | CCOc1ccc(S(=O)(=O)NC[C@@H](O)CO)cc1-c1nnc2c(n1)c(C)nn2C [8h, (R)-N-(2,3-dihydroxypropyl)-3-(1,3-dimethyl-1H-pyrazolo[4,3-e][1,2,4]triazin-5-yl)-4-ethoxybenzenesulfonamide] | 80 ± 14 | –
6 | CCOc1ccc(S(=O)(=O)NC[C@@H](C)O)cc1-c1nnc2c(n1)c(C)nn2C [8f, (R)-3-(1,3-dimethyl-1H-pyrazolo[4,3-e][1,2,4]triazin-5-yl)-4-ethoxy-N-(2-hydroxy-propyl)-benzenesulfonamide] | – | IC50 ([1]; read-out: Urease IC50, Jack bean urease, 100 mM urea, pH 8.2, 37 °C): 44 ± 130 nM
7 | CCOc1ccc(S(=O)(=O)NC[C@H](O)CO)cc1-c1nnc2c(n1)c(C)nn2C [8g, (S)-N-(2,3-dihydroxypropyl)-3-(1,3-dimethyl-1H-pyrazolo[4,3-e][1,2,4]triazin-5-yl)-4-ethoxybenzenesulfonamide] | 63 ± 16 | –
8 | CCOc1ccc(S(=O)(=O)N[C@H](CO)C(C)C)cc1-c1nnc2c(n1)c(C)nn2C [8c, (S)-3-(1,3-dimethyl-1H-pyrazolo[4,3-e][1,2,4]triazin-5-yl)-4-ethoxy-N-(1-hydroxy-3-methylbutan-2-yl)benzenesulfonamide] | 78 ± 20 | –
9 | CCOc1ccc(S(=O)(=O)N[C@@H](CO)C(C)C)cc1-c1nnc2c(n1)c(C)nn2C [8d, (R)-3-(1,3-dimethyl-1H-pyrazolo[4,3-e][1,2,4]triazin-5-yl)-4-ethoxy-N-(1-hydroxy-3-methylbutan-2-yl)benzenesulfonamide] | 64 ± 20 | –
10 | CCOc1ccc(S(=O)(=O)N[C@@H](CO)CC(C)C)cc1-c1nnc2c(n1)c(C)nn2C [8j, (R)-3-(1,3-dimethyl-1H-pyrazolo[4,3-e][1,2,4]triazin-5-yl)-4-ethoxy-N-(1-hydroxy-4-methylpentan-2-yl)benzenesulfonamide] | 80 ± 15 | Mushroom tyrosinase type of inhibition (mushroom tyrosinase): Mixed type
11 | CCOc1ccc(S(=O)(=O)NC[C@H](C)O)cc1-c1nnc2c(n1)c(C)nn2C [8e, (S)-3-(1,3-dimethyl-1H-pyrazolo[4,3-e][1,2,4]triazin-5-yl)-4-ethoxy-N-(2-hydroxy-propyl)-benzenesulfonamide] | 76 ± 7 | –
